Laboratory results reported in patent publication US8524705B2, “2-oxo-2-(2-phenyl-5,6,7,8-tetrahydro-indolizin-3-yl)-acetamide derivatives and related compounds as antifungal agents” (F2G Limited British Body Corporate, priority 2007, dated 2013).
Converted amounts (≈) assume the structure as drawn.

Assays:
Type in all cases: cell-based
Settings in all cases: banded into grades
[1] = system: Aspergillus flavus; assay: Measurement of Minimum Inhibitory Concentrations (MICs), A. flavus
Procedure: (§1) Between 1 and 5 mgs of compound were accurately weighed out into a sterile Eppendorf tube. The compound was dissolved in DMSO to give a solution containing 5 mg/mL. Tubes were stored at −20° C. until required. On the day of testing thawed solutions were vortex mixed to ensure homogeneity. 30 μL of solution was removed and added to 570 μL of sterile water in a separate sterile Eppendorf. The thoroughly mixed solution was used to prepare a series of doubling dilutions in water, in a deep well plate. […] replicate plates were prepared using a Minitrak by aspirating […] from each well into eleven clear polystyrene 96 well plates. Spores of Aspergillus spp. (Aspergillus fumigatus [two strains], Aspergillus terreus [two strains], Aspergillus niger and Aspergillus flavus) were harvested from cultures grown on Sabarauds agar for 5 days, and resuspended in PBS/Tween 80 to approx 1×10^7 cfu/mL. Each organism suspension was diluted in YAG medium (1% glucose, 1% ammonium chloride and 0.5% yeast extract) to 0.5-2×10^4 cfu/mL. 80 μL of an organism suspension was added to each well of the plate containing drug dilutions. This produced MIC plates with a drug range 50-0.05 mg/L and organism inocula of 1−2×10^4 cfu/mL for Aspergillus spp. All plates were incubated for 24 hrs at 35° C. Growth was assessed by monitoring the optical density at 485 nm for each well. The MIC of a compound is the lowest drug concentration that inhibits growth of an organism by >70% compared with a drug free control. MICs are recorded as mg/L. In cases where the MIC of an organism is >=0.05 mg/L the MIC is repeated using a concentration range of 0.5-0.0005 mg/L. Other growth media can be used for susceptibility testing, and the activity of the described compounds was also assessed in RPMI medium containing 2% glucose, and 0.135M MOPS buffer. MIC tests in YAG medium have more clear-cut endpoints and have slightly lower MICs than those performed in RPMI medium. The following organisms were tested: Aspergillus flavus, Aspergillus fumigatus AF293 and AF210, Aspergillus niger and Aspergillus terreus AT4 and AT49.

[2] = system: Aspergillus fumigatus AF210; assay: Measurement of Minimum Inhibitory Concentrations (MICs), A. fumigatus 210
Procedure: as §1

[3] = system: Aspergillus fumigatus AF293; assay: Measurement of Minimum Inhibitory Concentrations (MICs), A. fumigatus
Procedure: as §1

[4] = system: Aspergillus niger; assay: Measurement of Minimum Inhibitory Concentrations (MICs), A. niger
Procedure: as §1

[5] = system: Aspergillus terreus AT49; assay: Measurement of Minimum Inhibitory Concentrations (MICs), A. terreus 49
Procedure: as §1

[6] = system: Aspergillus terreus AT4; assay: Measurement of Minimum Inhibitory Concentrations (MICs), A. terreus
Procedure: as §1

[7] = RPMI medium containing 2% glucose, 0.135M MOPS buffer
[8] = YAG medium, 24 hrs at 35° C., >70% growth inhibition

Row | SMILES | MIC [1, 7] | MIC [1, 8] | MIC [2, 7] | MIC [2, 8] | MIC [3, 7] | MIC [3, 8] | MIC [4, 7] | MIC [4, 8] | MIC [5, 7] | MIC [5, 8] | MIC [6, 7] | MIC [6, 8]
1 | Cc1cc(C)nc(N(C)CCN(C)c2ccc(NC(=O)C(=O)c3c(-c4ccccc4)cc4n3CCCC4)cc2)c1 [Example 7, N-[4-({2-[(4,6-Dimethyl-pyridin-2-yl)-methyl-amino]-ethyl}-methyl-amino)-phenyl]-2-oxo-2-(2-phenyl-5,6,7,8-tetrahydro-indolizin-3-yl)-acetamide] | < 1 µg/mL | < 1 µg/mL | < 1 µg/mL | < 1 µg/mL | < 1 µg/mL | < 1 µg/mL | < 1 µg/mL | < 1 µg/mL | < 1 µg/mL | < 1 µg/mL | < 1 µg/mL | < 1 µg/mL
2 | COc1cc(C)nc(N2CCN(c3ccc(NC(=O)C(=O)c4c(-c5ccccc5)cc5n4CCCC5)cc3)CC2)c1 [Example 8, N-{4-[4-(4-Methoxy-6-methyl-pyridin-2-yl)-piperazin-1-yl]-phenyl}-2-oxo-2-(2-phenyl-5,6,7,8-tetrahydro-indolizin-3-yl)-acetamide] | 1 to 10 µg/mL (≈ 1.82 to 18.2 µM) | < 1 µg/mL | 1 to 10 µg/mL (≈ 1.82 to 18.2 µM) | < 1 µg/mL | < 1 µg/mL | < 1 µg/mL | 1 to 10 µg/mL (≈ 1.82 to 18.2 µM) | 1 to 10 µg/mL (≈ 1.82 to 18.2 µM) | < 1 µg/mL | < 1 µg/mL | < 1 µg/mL | < 1 µg/mL
3 | Cc1cc(C)nc(OCCOc2ccc(NC(=O)C(=O)c3c(-c4ccccc4)cc4n3CCCC4)cc2)c1 [Example 9, N-{4-[2-(4,6-Dimethyl-pyridin-2-yloxy)-ethoxy]-phenyl}-2-oxo-2-(2-phenyl-5,6,7,8-tetrahydro-indolizin-3-yl)-acetamide] | < 1 µg/mL | < 1 µg/mL | < 1 µg/mL | < 1 µg/mL | < 1 µg/mL | < 1 µg/mL | < 1 µg/mL | < 1 µg/mL | < 1 µg/mL | < 1 µg/mL | < 1 µg/mL | < 1 µg/mL
4 | Cc1cc(C)nc(N2CCN(c3ccc(NC(=O)C(=O)c4c(C5CCOCC5)cc5n4CCCC5)cc3)CC2)c1 [Example 10, N-{4-[4-(4,6-Dimethyl-pyridin-2-yl)-piperazin-1-yl]-phenyl}-2-oxo-2-[2-(tetrahydro-pyran-4-yl)-5,6,7,8-tetrahydro-indolizin-3-yl]-acetamide] | < 1 µg/mL | < 1 µg/mL | < 1 µg/mL | < 1 µg/mL | < 1 µg/mL | < 1 µg/mL | < 1 µg/mL | < 1 µg/mL | < 1 µg/mL | < 1 µg/mL | < 1 µg/mL | < 1 µg/mL
5 | Cc1cc(C)nc(N2CCN(c3ccc(NC(=O)C(=O)c4c(C5CCN(C)CC5)cc5n4CCCC5)cc3)CC2)c1 [Example 11, N-{4-[4-(4,6-Dimethyl-pyridin-2-yl)-piperazin-1-yl]-phenyl}-2-[2-(1-methyl-piperidin-4-yl)-5,6,7,8-tetrahydro-indolizin-3-yl]-2-oxo-acetamide] | > 10 µg/mL | > 10 µg/mL | > 10 µg/mL | > 10 µg/mL | > 10 µg/mL | > 10 µg/mL | > 10 µg/mL | > 10 µg/mL | > 10 µg/mL | > 10 µg/mL | > 10 µg/mL | > 10 µg/mL
6 | O=C(NC1CCN(c2ccccc2)CC1)C(=O)c1c(-c2ccccc2)cc2n1CCCC2 [Example 12, 2-Oxo-N-(1-phenyl-piperidin-4-yl)-2-(2-phenyl-5,6,7,8-tetrahydro-indolizin-3-yl)-acetamide] | > 10 µg/mL | > 10 µg/mL | 1 to 10 µg/mL (≈ 2.34 to 23.4 µM) | < 1 µg/mL | 1 to 10 µg/mL (≈ 2.34 to 23.4 µM) | < 1 µg/mL | 1 to 10 µg/mL (≈ 2.34 to 23.4 µM) | < 1 µg/mL | 1 to 10 µg/mL (≈ 2.34 to 23.4 µM) | < 1 µg/mL | 1 to 10 µg/mL (≈ 2.34 to 23.4 µM) | < 1 µg/mL
7 | COc1cc(C)cc(N2CCN(c3ccc(NC(=O)C(=O)c4c(-c5ccccc5)cc5n4CCCC5)cc3)CC2)n1 [Example 13, N-{4-[4-(6-Methoxy-4-methyl-pyridin-2-yl)-piperazin-1-yl]-phenyl}-2-oxo-2-(2-phenyl-5,6,7,8-tetrahydro-indolizin-3-yl)-acetamide] | < 1 µg/mL | < 1 µg/mL | < 1 µg/mL | < 1 µg/mL | < 1 µg/mL | < 1 µg/mL | < 1 µg/mL | < 1 µg/mL | < 1 µg/mL | < 1 µg/mL | < 1 µg/mL | < 1 µg/mL
